Assay [1] concerns the target T1, His6-GSK-3β (Homo sapiens, UniProt P49841).
T1 construct: made in house; host or cells: Sf21 insect cells (baculovirus)
Briefly: Inhibition of His6-GSK-3β kinase activity (ELISA-based format, time-resolved fluorescence readout). The format is biochemical. The conditions noted are these: for IC50: read-out: GSK3β IC50. Summed up:
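Plate-bound recombinant GST-Rb substrate was phosphorylated for 30 min at 37° C by baculovirus-expressed His6-GSK-3β (200 ng/ml) at 20 μM ATP, 10 mM MgCl2, 2.5% DMSO. Europium time-resolved fluorescence of anti-phospho-Ser780 Rb signal gave inhibition, fitted to IC50.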
(In general: An ELISA detects its analyte on a solid surface through an enzyme-linked reagent.)

Assay [2] concerns the target T2, CDK5/GST-p25 (Homo sapiens, UniProt Q00535).
T2 construct: The final construct, encoding for full-length human CDK5; made in house; host or cells: Sf21 insect cells (baculovirus co-infection)
Briefly: Inhibition of CDK5/GST-p25 kinase activity (ELISA with time-resolved fluorescence readout). In kind it is biochemical. Summed up: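 The substrate, GST-Rb(773-928), was immobilised on plates and phosphorylated for 20 min at 37 °C by 2 ng/ml CDK5/GST-p25 in HEPES pH 7.2 with 10 µM ATP and 10 mM MgCl2. Both proteins were human and co-expressed in insect cells. Ser-780 phosphorylation was read by europium time-resolved fluorescence and converted to IC50.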

Structures are written as SMILES. Counter-ions that a name gives are not always drawn. Like-named read-outs stand apart in the source and are kept apart here. A value given as a limit tells only on which side of the number the result lay.

The values that follow come from patent publication US8354414B2, “Substituted bicyclic pyrimidines” (Cephalon, Inc, priority 2006, dated 2013).

By IC50 is commonly meant the concentration that gives 50% inhibition.

T2 sequence (Q00535 whole entry): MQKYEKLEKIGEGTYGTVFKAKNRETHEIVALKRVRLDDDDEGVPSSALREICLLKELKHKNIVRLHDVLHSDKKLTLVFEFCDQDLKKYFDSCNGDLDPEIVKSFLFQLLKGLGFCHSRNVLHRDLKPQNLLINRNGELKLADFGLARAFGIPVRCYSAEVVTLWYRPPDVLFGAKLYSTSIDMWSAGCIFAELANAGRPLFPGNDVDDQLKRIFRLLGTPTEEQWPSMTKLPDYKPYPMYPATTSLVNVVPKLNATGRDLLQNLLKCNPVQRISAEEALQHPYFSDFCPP
T2 sequence (Q15078 108-307 partner limits assumed): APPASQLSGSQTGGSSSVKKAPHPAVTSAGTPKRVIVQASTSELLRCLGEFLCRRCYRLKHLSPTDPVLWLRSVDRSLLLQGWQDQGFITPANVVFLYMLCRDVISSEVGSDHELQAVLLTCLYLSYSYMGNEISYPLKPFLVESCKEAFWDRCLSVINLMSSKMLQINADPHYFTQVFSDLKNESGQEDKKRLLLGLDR
T1 sequence (P49841 2-419): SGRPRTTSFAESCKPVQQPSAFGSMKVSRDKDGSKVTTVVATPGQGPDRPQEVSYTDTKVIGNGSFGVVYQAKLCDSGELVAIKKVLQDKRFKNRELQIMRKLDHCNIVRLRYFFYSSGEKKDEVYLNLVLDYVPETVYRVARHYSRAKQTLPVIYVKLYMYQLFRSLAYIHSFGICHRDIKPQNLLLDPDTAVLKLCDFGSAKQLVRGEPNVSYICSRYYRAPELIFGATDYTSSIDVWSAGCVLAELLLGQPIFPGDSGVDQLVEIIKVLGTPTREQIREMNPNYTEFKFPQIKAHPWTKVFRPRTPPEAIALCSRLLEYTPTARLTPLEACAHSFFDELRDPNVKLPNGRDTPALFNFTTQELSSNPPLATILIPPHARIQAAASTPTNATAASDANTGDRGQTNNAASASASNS

With `N#Cc1ccc2c(c1)C(c1nc(O)nc3nn(C4CCCC4)cc13)C(=O)N2` (stereo not drawn) [Example 120, 3-(2-cyclopentyl-6-hydroxy-2H-pyrazolo [3,4-d]pyrimidin-4-yl)-2-oxo-2,3-dihydro-1H-indole-5-carbonitrile], the IC50 was < 0.3 µM in assay [1] (class symbols) and > 10 µM in assay [2] (class symbols).
Regarding `CN(C)CCNc1nc(C2C(=O)Nc3ccc(Br)cc32)c2cn(C3CCCC3)nc2n1` (stereo not drawn) [Example 370, 5-Bromo-3-[2-cyclopentyl-6-(2-dimethylamino-ethylamino)-2H-pyrazolo [3,4-d]pyrimidin-4-yl]-1,3-dihydro-indol-2-one], the IC50 was < 0.3 µM in assay [1] (class symbols) and > 3 µM in assay [2] (numeric bounds).
As for `CN(C)CCN(C)c1nc(C2C(=O)Nc3ccc(Cl)cc32)c2cn(C3CCCC3)nc2n1` (stereo not drawn) [Example 140, 5-Chloro-3-{2-cyclopentyl-6-[(2-dimethylamino-ethyl)-methyl-amino]-2H-pyrazolo[3,4-d]pyrimidin-4-yl}-1,3-dihydro-indol-2-one], the IC50 in assay [1] (class symbols) is < 0.3 µM; in assay [2] (class symbols) it was > 10 µM.
On the same counts, the results for `CCCn1cc2c(C3C(=O)Nc4ccc(Br)cc43)nc(NC[C@@H]3CCCO3)nc2n1` (stereo partly drawn) [Example 367, 5-Bromo-3-(2-propyl-6-{[(S)-1-(tetrahydro-furan-2-yl)methyl]-amino}-2H-pyrazolo [3,4-d]pyrimidin-4-yl)-1,3-dihydro-indol-2-one] are < 0.3 µM and < 0.3 µM.
`O=C1Nc2ccc(Br)cc2C1c1nc(Cl)nc2nn(C3CCCC3)cc12` (stereo not drawn) [Example 182, 5-Bromo-3-(6-chloro-2-cyclopentyl-2-H-pyrazolo[3,4-d]pyrimidin-4-yl)-1,3-dihydro-indol-2-one]: the IC50 was > 3 µM in assay [1] (numeric bounds) and > 10 µM in assay [2] (class symbols).
For `CCOCCNc1nc2c(c(C3C(=O)Nc4ccc(C#N)cc43)n1)CCC2` (stereo not drawn) [Example 344, 3-[2-(2-Ethoxy-ethylamino)-6,7-dihydro-5H-cyclopentapyrimidin-4-yl]-2-oxo-2,3-dihydro-1H-indole-5-carbonitrile], the “GSK3β % @10 μM” value in assay [1] (@10 μM) turned out to be 69% @10 μM. In assay [2] (class symbols), this compound showed an IC50 of 0.3 to 3 µM.
On to `N#Cc1ccc2c(c1)C(c1nc(NCCN3CCSCC3)nc3nn(C4CCCC4)cc13)C(=O)N2` (stereo not drawn) [Example 178, 3-[2-Cyclopentyl-6-(2-thiomorpholin-4-yl-ethylamino)-2H-pyrazolo[3,4-d]pyrimidin-4-yl]-2-oxo-2,3-dihydro-1H-indole-5-carbonitrile], for which the figures for the IC50 in assay [1] (class symbols) and in assay [2] (class symbols) were < 0.3 µM and 0.3 to 3 µM, respectively.
Consider `N#Cc1ccc2c(c1)C(c1ncnc3nn(C4CCCCC4)cc13)C(=O)N2` (stereo not drawn) [Example 45, 3-(2-Cyclohexyl-2H-pyrazolo [3,4-d]pyrimidin-4-yl)-2-oxo-2,3-dihydro-1H-indole-5-carbonitrile], for which the IC50 in assay [1] (class symbols) and in assay [2] (class symbols) was < 0.3 µM in each case.
Take `CNCCCn1cc2c(C3C(=O)Nc4ccc(Br)cc43)ncnc2n1` (stereo not drawn) [Example 90, 3-[2-(3-methylamino-propyl)-2H-pyrazolo[3,4-d]pyrimidin-4-yl]-5-bromo-1,3-dihydro-indol-2-one]: the IC50 in assay [1] (class symbols) is 0.3 to 3 µM; in assay [2] (class symbols), < 0.3 µM.
The corresponding values for `COCCn1cc2c(C3C(=O)Nc4ccc(Br)cc43)nc(NCCC3CCCNC3)nc2n1` (stereo not drawn) [Example 228, 5-Bromo-3-[2-(2-methoxy-ethyl)-6-(2-piperidin-3-yl-ethylamino)-2H-pyrazolo[3,4-d]pyrimidin-4-yl]-1,3-dihydro-indol-2-one] are < 0.3 µM and < 0.3 µM.
On the same counts, the results for `N#Cc1ccc2c(c1)C(c1nc(NCc3ccncc3)nc3c1CCC3)C(=O)N2` (stereo not drawn) [Example 347, 2-Oxo-3-{2-[(pyridin-4-ylmethyl)-amino]-6,7-dihydro-5H-cyclopentapyrimidin-4-yl}-2,3-dihydro-1H-indole-5-carbonitrile] are 0.3 to 3 µM and 0.3 to 3 µM.
On the same counts, the results for `N#Cc1ccc2c(c1)C(c1nc(NCCc3ccccn3)nc3c1CCC3)C(=O)N2` (stereo not drawn) [Example 346, 2-Oxo-3-[2-(2-pyridin-2-yl-ethylamino)-6,7-dihydro-5H-cyclopentapyrimidin-4-yl]-2,3-dihydro-1H-indole-5-carbonitrile] are 0.3 to 3 µM and 0.3 to 3 µM.
Take `CCCn1cc2c(C3C(=O)Nc4ccc(Br)cc43)nc(NCCC(F)(F)F)nc2n1` (stereo not drawn) [Example 192, 5-Bromo-3-[2-propyl-6-(3,3,3-trifluoro-propylamino)-2H-pyrazolo[3,4-d]pyrimidin-4-yl]-1,3-dihydro-indol-2-one]: the half-inhibitory concentration (IC50) in assay [1] (class symbols) and in assay [2] (class symbols) was < 0.3 µM each time.
For the compound `CN(C)CCCNc1nc2c(c(C3C(=O)Nc4ccc(Br)cc43)n1)CCC2` (stereo not drawn) [Example 335, 5-Bromo-3-[2-(3-dimethylamino-propylamino)-6,7-dihydro-5H-cyclopentapyrimidin-4-yl]-1,3-dihydro-indol-2-one], the IC50 in assay [1] (numeric bounds) and in assay [2] (numeric bounds) was > 3 µM in each case.
Turning to `Cn1cc2c(C3C(=O)Nc4ccc(Cl)cc43)ncnc2n1` (stereo not drawn) [Example 83, 5-Chloro-3-(2-methyl-2H-pyrazolo[3,4-d]pyrimidin-4-yl)-1,3-dihydro-indol-2-one], the IC50 in assay [1] (class symbols) was 0.3 to 3 µM; in assay [2] (class symbols) it was < 0.3 µM.
On to `CNCCNc1nc(C2C(=O)Nc3ccc(Br)cc32)c2cn(C)nc2n1` (stereo not drawn) [Example 360, 5-Bromo-3-[2-methyl-6-(2-methylamino-ethylamino)-2H-pyrazolo[3,4-d]pyrimidin-4-yl]-1,3-dihydro-indol-2-one hydrochloride salt], for which the IC50 in assay [1] (class symbols) and in assay [2] (class symbols) was 0.3 to 3 µM each time.
Regarding `N#Cc1ccc2c(c1)C(c1nc(NCc3ccc(Cl)nc3)nc3nn(C4CCCC4)cc13)C(=O)N2` (stereo not drawn) [Example 171, 3-{6-[(6-Chloro-pyridin-3-ylmethyl)-amino]-2-cyclopentyl-2H-pyrazolo[3,4-d]pyrimidin-4-yl}-2-oxo-2,3-dihydro-1H-indole-5-carbonitrile], the IC50 in assay [1] (class symbols) and in assay [2] (class symbols) was < 0.3 µM in each case.
With `N#Cc1ccc2c(c1)C(c1nc(NCCCN3CCCCC3)nc3nn(C4CCCC4)cc13)C(=O)N2` (stereo not drawn) [Example 170, 3[2-Cyclopentyl-6-(3-piperidin-1-yl-propylamino)-2H-pyrazolo[3,4-d]pyrimidin-4-yl]-2-oxo-2,3-dihydro-1H-indole-5-carbonitrile], the IC50 in assay [1] (class symbols) was < 0.3 µM; in assay [2] (class symbols) it was 0.3 to 3 µM.
The corresponding values for `CN(C)CCNc1nc(C2C(=O)Nc3ccc(C#N)cc32)c2cn(C3CCCC3)nc2n1` (stereo not drawn) [Example 119, 3-(2-cyclopentyl-6-(2-dimethylamino-ethylamino)-2H-pyrazolo [3,4-d]pyrimidin-4-yl)-2-oxo-2,3-dihydro-1H-indole-5-carbonitrile] are < 0.3 µM and 0.3 to 3 µM.
The corresponding values for `COc1ccc2c(c1)C(c1ncnc3nn(C4CCCCC4)cc13)C(=O)N2` (stereo not drawn) [Example 52, 3-(2-Cyclohexyl-2H-pyrazolo[3,4-d]pyrimidin-4-yl)-5-methoxy-1,3-dihydro-indol-2-one] are 0.3 to 3 µM and 0.3 to 3 µM.
The corresponding values for `O=C1Nc2ccc(Cl)cc2C1c1nc(NCc2ccc(C(F)(F)F)nc2)nc2c1CCC2` (stereo not drawn) [Example 329, 5-Chloro-3-{2-[(6-trifluoromethyl-pyridin-3-ylmethyl)-amino]-6,7-dihydro-5H-cyclopentapyrimidin-4-yl}-1,3-dihydro-indol-2-one] are > 10 µM and > 10 µM.
Turning to `CN(C)CCCNc1nc2c(c(C3C(=O)Nc4ccc(C#N)cc43)n1)CCC2` (stereo not drawn) [Example 342, 3-[2-(3-Dimethylamino-propylamino)-6,7-dihydro-5H-cyclopentapyrimidin-4-yl]-2-oxo-2,3-dihydro-1H-indole-5-carbonitrile], the IC50 in assay [1] (class symbols) and in assay [2] (class symbols) was 0.3 to 3 µM throughout.
On to `N#Cc1ccc2c(c1)C(c1nc(N3CCCCC3)nc3nn(C4CCCC4)cc13)C(=O)N2` (stereo not drawn) [Example 131, 3-(2-cyclopentyl-6-piperidin-1-yl-2H-pyrazolo[3,4-d]pyrimidin-4-yl)-2-oxo-2,3-dihydro-1H-indole-5-carbonitrile], for which the IC50 in assay [1] (class symbols) is < 0.3 µM; in assay [2] (class symbols), > 10 µM.
As for `CC(C)Cn1cc2c(C3C(=O)Nc4ccc(Cl)cc43)nc(Cl)nc2n1` (stereo not drawn) [Example 273, 5-Chloro-3-(6-chloro-2-isobutyl-2H-pyrazolo [3,4-d]pyrimidin-4-yl)-1,3-dihydro-indol-2-one], the IC50 is > 3 µM in assay [1] (numeric bounds) and > 10 µM in assay [2] (class symbols).
Consider `N#Cc1ccc2c(c1)C(c1nc(Nc3ccc(F)nc3)nc3c1CCC3)C(=O)N2` (stereo not drawn) [Example 351, 3-[2-(6-Fluoro-pyridin-3-ylamino)-6,7-dihydro-5H-cyclopentapyrimidin-4-yl]-2-oxo-2,3-dihydro-1H-indole-5-carbonitrile], for which the IC50 in assay [1] (class symbols) and in assay [2] (class symbols) was > 10 µM throughout.
Consider `CN1CCN(c2nc3c(c(C4C(=O)Nc5ccc(C#N)cc54)n2)CCC3)CC1` (stereo not drawn) [Example 353, 3-[2-(4-Methyl-piperazin-1-yl)-6,7-dihydro-5H-cyclopentapyrimidin-4-yl]-2-oxo-2,3-dihydro-1H-indole-5-carbonitrile], for which the IC50 is 0.3 to 3 µM in assay [1] (class symbols) and > 10 µM in assay [2] (class symbols).
On the same counts, the results for `N#Cc1ccc2c(c1)C(c1nc(N3CCN(CCc4cccs4)CC3)nc3nn(C4CCCC4)cc13)C(=O)N2` (stereo not drawn) [Example 130, 3-{2-cyclopentyl-6-[4-(2-thiophen-2-yl-ethyl)-piperazin-1-yl]-2H-pyrazolo[3,4-d]pyrimidin-4-yl}-2-oxo-2,3-dihydro-1H-indole-5-carbonitrile] are < 0.3 µM and > 10 µM.
